# From PubChem BioAssay (NCI)
#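 1) Cells in 96-well plates. 2) Compound, 48 h, 5 concentrations. 3) Linear interpolation between surrounding doses. 4) Unreached endpoint = highest concentration. TGI is the concentration that stops growth completely.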
# Experiments:
# Assay in all cases: NCI anticancer screen, dose series, 48 h
# SF-295 CNS = tested on: SF-295 CNS
# LXFL 529 NSCLC = tested on: LXFL 529 NSCLC
# HOP-62 NSCLC = tested on: HOP-62 NSCLC
# CAKI-1 renal = tested on: CAKI-1 renal
# OVCAR-4 ovarian = tested on: OVCAR-4 ovarian
# COLO 205 colon = tested on: COLO 205 colon
# SW-620 colon = tested on: SW-620 colon
# SK-MEL-2 melanoma = tested on: SK-MEL-2 melanoma
# CCRF-CEM leukemia = tested on: CCRF-CEM leukemia
# SNB-19 CNS = tested on: SNB-19 CNS
# SF-268 CNS = tested on: SF-268 CNS
# NCI-H226 lung = tested on: NCI-H226 lung
# OVCAR-8 ovarian = tested on: OVCAR-8 ovarian
# HCT-116 colon = tested on: HCT-116 colon
# 786-0 renal = tested on: 786-0 renal
# EKVX NSCLC = tested on: EKVX NSCLC
# SK-OV-3 ovarian = tested on: SK-OV-3 ovarian
# ACHN renal = tested on: ACHN renal
# OVCAR-5 ovarian = tested on: OVCAR-5 ovarian
# UO-31 renal = tested on: UO-31 renal
# DMS 114 small cell lung = tested on: DMS 114 small cell lung
# IGROV1 ovarian = tested on: IGROV1 ovarian
# SNB-78 CNS = tested on: SNB-78 CNS
# A498 renal = tested on: A498 renal
# MALME-3M melanoma = tested on: MALME-3M melanoma
# KM20L2 colon = tested on: KM20L2 colon
# SF-539 CNS = tested on: SF-539 CNS
# NCI-H23 lung = tested on: NCI-H23 lung
# TK-10 renal = tested on: TK-10 renal
# SN12C renal = tested on: SN12C renal
# UACC-62 melanoma = tested on: UACC-62 melanoma
# KM12 colon = tested on: KM12 colon
# NCI-H522 lung = tested on: NCI-H522 lung
# DMS 273 small cell lung = tested on: DMS 273 small cell lung
# DLD-1 colon = tested on: DLD-1 colon
# LOX IMVI melanoma = tested on: LOX IMVI melanoma
# NCI-H460 lung = tested on: NCI-H460 lung
# SR leukemia = tested on: SR leukemia
# U251 CNS = tested on: U251 CNS
# M19-MEL melanoma = tested on: M19-MEL melanoma
# UACC-257 melanoma = tested on: UACC-257 melanoma
# A549 NSCLC = tested on: A549 NSCLC
# OVCAR-3 ovarian = tested on: OVCAR-3 ovarian
# MOLT-4 leukemia = tested on: MOLT-4 leukemia
# HL-60(TB) leukemia = tested on: HL-60(TB) leukemia
# M14 melanoma = tested on: M14 melanoma
# RPMI-8226 leukemia = tested on: RPMI-8226 leukemia
# HT29 colon = tested on: HT29 colon
# K-562 leukemia = tested on: K-562 leukemia
# SK-MEL-5 melanoma = tested on: SK-MEL-5 melanoma
# HCT-15 colon = tested on: HCT-15 colon
# RXF 393 renal = tested on: RXF 393 renal
# HOP-92 NSCLC = tested on: HOP-92 NSCLC
# SNB-75 CNS = tested on: SNB-75 CNS
# HCC-2998 colon = tested on: HCC-2998 colon
# SK-MEL-28 melanoma = tested on: SK-MEL-28 melanoma
smiles,measurement,setting,value
CCC1=C(CC)C1(C#N)[N+](=O)[O-],TGI,SF-295 CNS,> 100 µM
same,TGI,LXFL 529 NSCLC,> 100 µM
same,TGI,HOP-62 NSCLC,> 100 µM
same,TGI,CAKI-1 renal,> 100 µM
same,TGI,OVCAR-4 ovarian,> 100 µM
same,TGI,COLO 205 colon,> 100 µM
same,TGI,SW-620 colon,> 100 µM
same,TGI,SK-MEL-2 melanoma,> 100 µM
same,TGI,CCRF-CEM leukemia,> 100 µM
same,TGI,SNB-19 CNS,> 100 µM
same,TGI,SF-268 CNS,> 100 µM
same,TGI,NCI-H226 lung,> 100 µM
same,TGI,OVCAR-8 ovarian,> 100 µM
same,TGI,HCT-116 colon,> 100 µM
same,TGI,786-0 renal,> 100 µM
same,TGI,EKVX NSCLC,> 100 µM
same,TGI,SK-OV-3 ovarian,> 100 µM
same,TGI,ACHN renal,> 100 µM
same,TGI,OVCAR-5 ovarian,> 100 µM
same,TGI,UO-31 renal,> 100 µM
same,TGI,DMS 114 small cell lung,> 100 µM
same,TGI,IGROV1 ovarian,> 100 µM
same,TGI,SNB-78 CNS,> 100 µM
same,TGI,A498 renal,> 100 µM
same,TGI,MALME-3M melanoma,> 100 µM
same,TGI,KM20L2 colon,> 100 µM
same,TGI,SF-539 CNS,> 100 µM
same,TGI,NCI-H23 lung,> 100 µM
same,TGI,TK-10 renal,> 100 µM
same,TGI,SN12C renal,> 100 µM
same,TGI,UACC-62 melanoma,> 100 µM
same,TGI,KM12 colon,> 100 µM
same,TGI,NCI-H522 lung,> 100 µM
same,TGI,DMS 273 small cell lung,> 100 µM
same,TGI,DLD-1 colon,> 100 µM
same,TGI,LOX IMVI melanoma,> 100 µM
same,TGI,NCI-H460 lung,> 100 µM
same,TGI,SR leukemia,> 100 µM
same,TGI,U251 CNS,> 100 µM
same,TGI,M19-MEL melanoma,> 100 µM
same,TGI,UACC-257 melanoma,> 100 µM
same,TGI,A549 NSCLC,> 100 µM
same,TGI,OVCAR-3 ovarian,> 100 µM
same,TGI,MOLT-4 leukemia,> 100 µM
same,TGI,HL-60(TB) leukemia,> 100 µM
same,TGI,M14 melanoma,> 100 µM
same,TGI,RPMI-8226 leukemia,> 100 µM
same,TGI,HT29 colon,> 100 µM
same,TGI,K-562 leukemia,> 100 µM
same,TGI,SK-MEL-5 melanoma,> 100 µM
same,TGI,HCT-15 colon,> 100 µM
Cc1ccc(S(=O)(=O)N(/N=C/C=C/c2ccccc2)c2nnc(-c3ccccc3)c(-c3ccccc3)n2)cc1,TGI,SF-295 CNS,64.3 µM
same,TGI,HOP-62 NSCLC,48.9 µM
same,TGI,RXF 393 renal,60.7 µM
same,TGI,HOP-92 NSCLC,47.4 µM
same,TGI,CAKI-1 renal,57 µM
same,TGI,OVCAR-4 ovarian,> 100 µM
same,TGI,COLO 205 colon,36.1 µM
same,TGI,SW-620 colon,> 100 µM
same,TGI,SK-MEL-2 melanoma,47.8 µM
same,TGI,CCRF-CEM leukemia,> 100 µM
same,TGI,SNB-19 CNS,> 100 µM
same,TGI,SF-268 CNS,96.9 µM
same,TGI,NCI-H226 lung,55.6 µM
same,TGI,OVCAR-8 ovarian,> 100 µM
same,TGI,786-0 renal,74.3 µM
same,TGI,EKVX NSCLC,> 100 µM
same,TGI,SK-OV-3 ovarian,75.1 µM
same,TGI,ACHN renal,> 100 µM
same,TGI,OVCAR-5 ovarian,> 100 µM
same,TGI,UO-31 renal,23.4 µM
same,TGI,DMS 114 small cell lung,54.1 µM
same,TGI,SNB-75 CNS,69 µM
same,TGI,HCC-2998 colon,29.5 µM
same,TGI,IGROV1 ovarian,> 100 µM
same,TGI,SNB-78 CNS,> 100 µM
same,TGI,A498 renal,> 100 µM
same,TGI,MALME-3M melanoma,> 100 µM
same,TGI,KM20L2 colon,40.5 µM
same,TGI,SF-539 CNS,33 µM
same,TGI,NCI-H23 lung,66.8 µM
same,TGI,TK-10 renal,76.9 µM
same,TGI,SN12C renal,> 100 µM
same,TGI,UACC-62 melanoma,> 100 µM
same,TGI,KM12 colon,> 100 µM
same,TGI,NCI-H522 lung,51.9 µM
same,TGI,DMS 273 small cell lung,66.9 µM
same,TGI,DLD-1 colon,> 100 µM
same,TGI,LOX IMVI melanoma,51.3 µM
same,TGI,SK-MEL-28 melanoma,78.4 µM
same,TGI,NCI-H460 lung,> 100 µM
same,TGI,U251 CNS,> 100 µM
same,TGI,M19-MEL melanoma,78.3 µM
same,TGI,UACC-257 melanoma,98.7 µM
same,TGI,A549 NSCLC,94.4 µM
same,TGI,OVCAR-3 ovarian,88.6 µM
same,TGI,MOLT-4 leukemia,76.5 µM
same,TGI,HL-60(TB) leukemia,50.4 µM
same,TGI,M14 melanoma,49.4 µM
same,TGI,RPMI-8226 leukemia,40.3 µM
same,TGI,HT29 colon,23 µM
same,TGI,K-562 leukemia,80 µM
same,TGI,SK-MEL-5 melanoma,35.1 µM
same,TGI,HCT-15 colon,> 100 µM
